Assay results: EP4005570B1, “P[…] USE IN TREATING RETT SYNDROME” (Prilenia Neurotherapeutics Ltd., priority 2016, dated 2018)
Values joined by “and” are separate entries in the source; they are usually repeats but may differ in a detail not shown here. Identical values can stand only once. Like-named read-outs stand apart in the source and are kept apart here.

Key:
neuroblastoma cell line = conditions: S1R-dependent manner (Geva 2016); cited from earlier work
[1] = tested on: female MeCP2 (BIRD) mouse model of RTT; conditions: for startle response: vs vehicle-treated HET mice
Excerpt: (§1) Dosing commenced when mice were ~5.5 weeks of age and continued through the end of behavioral testing. Behavioral testing was done at 8 and 12 weeks of age.
(§2) Female MeCP2 ([…], HET) mice and wild type (MeCP2_WT, WT) littermates were received in two cohorts at ~4.5 weeks of age from Jackson Laboratories. They were assigned unique identification numbers and group-housed in opti-MICE cages (Animal Care Systems, CO). All animals were examined and weighed prior to initiation and throughout the study to assure adequate health and suitability and to minimize nonspecific stress associated with manipulation. During the course of the study, 12/12 light/dark cycle was maintained. The room temperature was maintained between 20 and 23°C with a relative humidity maintained around 50%. Chow and water was provided ad libitum for the duration of the study. The tests were performed during the animal's light cycle phase.
Mice were placed in the PPI chambers (Med Associates) for a 5 min session of white noise (70 dB) habituation.
The inter-trial interval was variable with an average of 15 s (range from 10 to 20 s).
(§3) Data from standard tests were analyzed by genotype (t-test) and by treatment (ANOVA) followed by post-hoc comparisons where appropriate. For some measures (i.e. body weights and PPI), repeated-measures ANOVAs were performed. For clasping data, N-1 two-proportional tests were performed. An effect was considered significant if p < 0.05. All data are represented as the mean and standard error to the mean (s.e.m). Values ± 2 standard deviations from the mean were considered outliers.

[2] = tested on: female MeCP2 (BIRD) mouse model of RTT
Excerpt: as §1, §2, §3

[3] = tested on: female MeCP2 (BIRD) mouse model of RTT; conditions: for Recovery (%) Gait / Recovery (%) Paw Features / Recovery (%) Paw Positioning / Recovery (%) Body Motion / Recovery (%) Rhythmicity: HET mice
Excerpt: as §1, §2
Mice were placed in the NeuroCube for a 5 min test. The most dominant of the features collected that define the disease phenotype (symptom descriptors) was identified and ranked. Complex bioinformatic algorithms were employed to calculate the discrimination probability between the WT and the BIRD mice and detect a test compound's ability to reverse the disease phenotype. Discriminations between mutant and wild type was calculated as well as the recovery of disease features in HET mice treated with the test compound.
The output of NeuroCube is a set of dozens of behavioral features that are submitted for analysis with machine learning techniques used in bioinformatics. Many of these features are correlated (e.g. rearing counts and supported rearing counts). Therefore, PGI forms statistically independent combinations of the original features (further referred to as de-correlated features) that discriminate between the two groups more effectively.
Each de-correlated feature extracts information from the whole cluster of the original features, so the new feature space has lower dimensionality. Next, PGI applies a proprietary feature ranking algorithm to score each feature's discrimination power (ability to separate the two groups, e.g. control and disease).
Ranking is an important part of the analyses because it weighs each feature change by its relevance: if there is a significant change in some irrelevant feature measured for a particular phenotype, the low rank of this feature will automatically reduce the effect of such change in the analyses, so there is no need to resort to the conventional "feature selection" approach and discard information buried in the less informative features. Ranking algorithm can be applied to either original or the new features to gain insight about the key control-disease differences (see Figure 1).
In the new feature space, the overlap between the "clouds" (Gaussian distributions approximating the groups of mice in the ranked de-correlated features space) serves as a quantitative measure of separability ("distinguishability") between the two groups (see Figure 2). For visualization purposes, each cloud was plotted with its semi-axes equal to the one standard deviation along the corresponding dimensions.

BDNF = conditions: whole brain; 3 and 30 mg/kg BID; vs MeCP2_HET vehicle
Method: Mice were euthanized via cervical dislocation and decapitated. From 10 mice/treatment group, whole brains were collected, weighed, and then frozen on dry ice. Samples were stored at - 80°C until analysis of brain-derived neurotrophic factor (BDNF).
Once tissues were disrupted, samples were allowed to incubate at room temperate for 5 minutes.
Briefly, 150µL of Chloroform (Cat # C2432, Sigma-Aldrich, St. Louis, MO) was added and samples were shaken vigorously for 15 seconds followed by 3-minute incubation at room temperature. The aqueous phase was separated from the organic phase by centrifugation at 6,000 x g (Beckman Coulter Avanti J-30I), 4°C for 15 minutes. The aqueous phase was then transferred to a new 96-well block and total RNA was precipitated with equal volume of 70% ethanol. Content was transferred to an RNeasy 96-well plate, followed by centrifuge at 6,000-x g (Beckman Coulter Avanti J-30I), at room temperate for 4 minutes. […] RNA was eluted with RNase-Free water.
Samples were quantified using NanoDrop 8000 (Thermo Scientific). […]
Relative quantity of the PCR product (relative to the calibrator) was calculated as follows: [formula] […]
Geometric mean for the three housekeeping genes was calculated as follows: [formula]
Relative level of target gene was calculated as follows: Relative Quantity of Target gene÷Geometric mean of housekeeping genes [formula] […]

[4] = tested on: patient afflicted with RTT; conditions: periodic administration (daily or twice daily), intravenously or orally
[5] = 12 weeks, 30 mg/kg BID, 30 mg/kg
[6] = 12 weeks, 30 mg/kg BID, listed as pridopidine, 30 mg/kg

Structure (SMILES): CCCN1CCC(c2cccc(S(C)(=O)=O)c2)CC1 [Pridopidine, 4-[3-(methylsulfonyl)phenyl]-1-propyl-piperidine]
- secretion of the neuroprotective brain-derived neurotrophic factor (BDNF) (neuroblastoma cell line): enhances secretion
- startle response ([1]; 3 mg/kg BID, both ages (8 and 12 weeks)): increased startle response
- startle response ([1]; 30 mg/kg BID): did not have a significant effect
- prepulse inhibition response ([1]; 3 and 30 mg/kg BID, HET mice): No genotype or treatment effects were observed
- hindlimb clasping ([2]; 3 mg/kg BID, 8 and 12 weeks, vs HET-vehicle): did not have a significant effect
- hindlimb clasping ([2]; 30 mg/kg BID, 12 weeks): this effect was not seen
- gait measures ([3]; 3 mg/kg BID, compared with vehicle-treated mutants, age not stated): differed significantly
- recovery of overall gait features ([3]; 3 mg/kg, 8 weeks of age, Figure 8A): no recovery
- recovery of overall gait features ([3]; 3 mg/kg, 12 weeks of age, Figure 9A): no recovery
- recovery of overall gait features ([3]; 30 mg/kg, 8 weeks of age, Figure 8B): 45% and 55%
- recovery of overall gait features ([3]; 30 mg/kg, 8 weeks of age, Figure 8B, listed as pridopidine): significant recovery
- recovery of overall gait features ([3]; 30 mg/kg, 12 weeks of age, Figure 9B): 55%
- Recovery (%) Gait ([3]; 8 weeks, 3 mg/kg BID): 38%
- Recovery (%) Paw Features ([3]; 8 weeks, 3 mg/kg BID): 0%
- Recovery (%) Paw Positioning ([3]; 8 weeks, 3 mg/kg BID): 8%
- Recovery (%) Body Motion ([3]; 8 weeks, 3 mg/kg BID, 3 mg/kg): 82%
- Recovery (%) Body Motion ([3]; 8 weeks, 3 mg/kg BID, listed as pridopidine, 3 mg/kg): showed efficacy
- Recovery (%) Gait ([3]; 8 weeks, 30 mg/kg BID): 71%
- Recovery (%) Paw Features ([3]; 8 weeks, 30 mg/kg BID): 63%
- Recovery (%) Paw Positioning ([3]; 8 weeks, 30 mg/kg BID): 35%
- Recovery (%) Body Motion ([3]; 8 weeks, 30 mg/kg BID, 30 mg/kg): 84%
- Recovery (%) Body Motion ([3]; 8 weeks, 30 mg/kg BID, listed as pridopidine, 30 mg/kg): showed efficacy
- Recovery (%) Gait ([3]; 12 weeks, 3 mg/kg BID): 60%
- Recovery (%) Paw Features ([3]; 12 weeks, 3 mg/kg BID): 0%
- Recovery (%) Paw Positioning ([3]; 12 weeks, 3 mg/kg BID): 35%
- Recovery (%) Rhythmicity ([3]; 12 weeks, 3 mg/kg BID): 41%
- Recovery (%) Body Motion ([3]; 12 weeks, 3 mg/kg BID, 3 mg/kg): 65%
- Recovery (%) Body Motion ([3]; 12 weeks, 3 mg/kg BID, listed as pridopidine, 3 mg/kg): showed efficacy
- Recovery (%) Paw Features ([3]; 12 weeks, 30 mg/kg BID): 69%
- Recovery (%) Paw Positioning ([3]; 12 weeks, 30 mg/kg BID): 52%
- Recovery (%) Rhythmicity ([3]; 12 weeks, 30 mg/kg BID): 10%
- Recovery (%) Body Motion [3, 5]: 59%
- Recovery (%) Gait [3, 5]: 100%
- Recovery (%) Body Motion [3, 6]: showed efficacy
- Recovery (%) Gait [3, 6]: Significant effects
- BDNF I mRNA expression (BDNF): None of the treatments had a significant effect
- BDNF VI mRNA expression (BDNF): None of the treatments had a significant effect
- treatment of the patient afflicted with RTT [4]: effective to treat the patient
